Results: ChEMBL document CHEMBL3045371, “Structure-Activity Relationships of the Azole Fungicide Metconazole and Its Related Azolylmethylcycloalkanols” (1999)
In brackets after ≈: the same amount, converted by molar mass.

These compounds were tested on Fusarium fujikuroi (assay: Fungicidal activity against Fusarium fujikuroi assessed as inhibition of mycelial growth incubated for 3 days at 28 degC). Details: 72 h.
Type: functional

| SMILES | EC90 [mg/L] |
| --- | --- |
| CC1(C)CC[C@@H](Cc2ccc(Cl)cc2)[C@@]1(O)Cn1cncn1 | 2 (≈ 6.25 µM) |
| CC1(C)CCCC[C@@H](Cc2ccc(Cl)cc2)[C@@]1(O)Cn1cncn1 | 4 (≈ 11.5 µM) |
| O[C@]1(Cn2cncn2)CCC[C@@H]1Cc1ccc(Cl)cc1 (relative stereo) | 2.1 (≈ 7.2 µM) |
| O[C@]1(Cn2cncn2)CCC[C@H]1Cc1ccc(Cl)cc1 (relative stereo) | 152 (≈ 521 µM) |
| O[C@]1(Cn2cncn2)CCCC[C@@H]1Cc1ccc(Cl)cc1 (relative stereo) | > 400 |
| O[C@]1(Cn2cncn2)CCCC[C@H]1Cc1ccc(Cl)cc1 (relative stereo) | 64.3 (≈ 210 µM) |
| O[C@]1(Cn2cncn2)CCCCC[C@@H]1Cc1ccc(Cl)cc1 (relative stereo) | 2.2 (≈ 6.88 µM) |
| O[C@]1(Cn2cncn2)CCCCC[C@H]1Cc1ccc(Cl)cc1 (relative stereo) | > 400 |
| CC1(C)CC[C@H](Cc2ccc(Cl)cc2)[C@@]1(O)Cn1cncn1 (relative stereo) | 0.2 (≈ 0.625 µM) |
| CC1(C)CCC[C@H](Cc2ccc(Cl)cc2)[C@@]1(O)Cn1cncn1 (relative stereo) | 15 (≈ 44.9 µM) |
| CC1(C)CCC[C@@H](Cc2ccc(Cl)cc2)[C@@]1(O)Cn1cncn1 (relative stereo) | 4.4 (≈ 13.2 µM) |
| CC1(C)CCCC[C@H](Cc2ccc(Cl)cc2)[C@@]1(O)Cn1cncn1 (relative stereo) | 1.3 (≈ 3.74 µM) |
